Measurements taken from patent US20240165018A1, “HYDROGEL IMPLANTS FOR LOWERING INTRAOCULAR PRESSURE” (OCULAR THERAPEUTIX, INC., priority 2019, published 2024).
Read-outs that look alike come from different tables or passages of the source.

Assays:
glaucomatous beagles [1] = assay: IOP changes in glaucomatous beagles after travoprost instillations; format: in vivo
Excerpt: (§1) A pharmacodynamic study performed in twelve glaucomatous beagles evaluated the changes in intraocular pressure (IOP) and pupil diameter (PD) after instillations of 0.033, 0.0033, 0.001, 0.00033, and 0.0001% travoprost in multiple single-dose studies.

glaucomatous beagles [2] = assay: Pupil diameter changes in glaucomatous beagles after travoprost instillations; format: in vivo
Excerpt: as §1

[3] = system: subjects with primary open-angle glaucoma or ocular hypertension; assay: IOP in subjects with primary open-angle glaucoma or ocular hypertension; format: in vivo, human; conditions: patients
Excerpt: Patient population was controlled ocular hypertension or primary open-angle glaucoma; open, normal anterior chamber angles on gonioscopy. Primary outcomes were as follows. Diurnal IOP (8 AM, 10 AM, 4 PM) at Baseline. Day 14. Day 42. Day 85, Month 4 and Month 6. Intraocular pressure at 8 AM at Day 1. Day 3. Day 7 and Day 28. Safety evaluations, including adverse event reporting, ocular comfort, global tolerance, BCVA, endothelial cell counts, and pachymetry.

[4] = system: lasered hypertensive cynomolgus monkeys; conditions: cited from earlier work

In the case of `CC(C)OC(=O)CCC/C=C\C[C@@H]1[C@@H](/C=C/[C@@H](O)COc2cccc(C(F)(F)F)c2)[C@H](O)C[C@@H]1O` [travoprost], the “effect on IOP” value (glaucomatous beagles [1]; 0.0001% concentration) is reported as “limited IOP changes”, the “effect on IOP” value (glaucomatous beagles [1]; concentrations of 0.00033, 0.001, and 0.0033%, single-dose instillation) is reported as “significantly lowered” and the “dosage strength that maintained IOP reduction for 24 hours” value (glaucomatous beagles [1]; dog, in vivo) is reported as at least 0.001%. For the same compound, the PD changes (glaucomatous beagles [2]; 0.0001% concentration) was “still significant”, the “pupil constriction maintained for 24 hours” value (glaucomatous beagles [2]; all dosage strengths) was “no dosage strength maintained pupil constriction for 24 hours” and the “effect on pupil diameter (PD)” value (glaucomatous beagles [2]; concentrations of 0.00033, 0.001, and 0.0033%) was “significantly lowered”. The “onset of decrease in mean IOP following administration” value [3] was “as early as two days”, the IOP lowering ([4]; continued twice a day dosing at 0.1 μg, after doses 4 and 5) was “significant lowering of IOP” and the IOP lowering ([4]; single dose of 0.1 μg) was “did not significantly lower IOP”. For the same compound, the IOP reduction ([4]; single dose of 0.3 μg) was 19-26%.
